The subject of series [1] is MCF-7 breast cancer cells. The series can be described thus: Side-by-side growth assay versus cisplatin, MCF-7, Example 6. It counts as cell-based, human. The conditions noted are these: for MCF-7 cell count: untreated 2.96 × 10^6. As for the experimental part: (§1) Growth Assay: plate individual cells (human breast cancer cells MCF-7, and MDA-MB-231) at 10^4 cells/mL, 1-mL/well in MEM-10 (MEM+10% FBS, where FBS is fetal Bovine Serum) with 1/100 Penicillin/Strep. Add 1/100 volume of the above Test Solution (10 μL/mL) to triplicate wells. MCF-7 also requires 10 μg/mL insulin; MDA-MB-231 requires no insulin. Incubate cell cultures at 37° C. for 6 days and count the number of cells.
(§2) side-by-side comparison of cis-[Pt(NH3)2 PtCl(Guanosine)]Cl and cisplatin (performed by Biotherapies Incorporated of Ann Arbor, Mich.)
(§3) Test Solutions: Test solutions were prepared in the same manner as in Example 5, except, additional test solution was prepared employing cisplatin.
(§4) Growth Assay: The same method in Example 5 was used. However, the cells studied were normal human mammary cells and breast cancer cells, MCF-7.

Series [2] has as its system normal human mammary cells. Briefly: Side-by-side growth assay versus cisplatin, normal human mammary cells, Example 6. In kind it is cell-based. The conditions noted are these: for cell count, normal human mammary cells: untreated 1.00 × 10^5; for % inhibition: normal human mammary cells. As for the experimental part: as §1, §2, §3, §4
Series [3] relates to human breast cancer cells MCF-7. Briefly: In-vitro growth assay (cell count after 6 days), MCF-7, Example 5. In kind it is cell-based. The conditions noted are these: 37° C.; for MCF-7 cell count / % inhibition: 6 days; for MCF-7 cell count: untreated 6.70 × 10^5. Here is the method: (§5) In-vitro inhibition of cancer cells by cis-[(NH3)2 PtCl(Guanosine)]Cl (performed by Biotherapies Incorporated, Ann Arbor, Mich.)
as §1

Series [4] has as its system human breast cancer cells MDA-MB-231. The series can be described thus: In-vitro growth assay (cell count after 6 days), MDA-MB-231, Example 5. In kind it is cell-based. The note with it: 37° C.; for MDA cell count / % inhibition: 6 days; for MDA cell count: untreated 4.00 × 10^5. Here is the method:
as §5, §1

Where [5] appears, read: 0.012 mg/mL (4.00 × 10^-5 mmole/mL).
The mark [6] stands for this setting: cisplatin 0.025 mg/mL (8.33 × 10^-5 mmole/mL).
Where [7] appears, read: 0.00025 mg/mL (4.29 × 10^-7 mmole/mL).
[8] abbreviates: 0.0025 mg/mL (4.29 × 10^-6 mmole/mL).
Where [9] appears, read: 0.025 mg/mL (4.29 × 10^-5 mmole/mL).
The mark [10] stands for this setting: 0.05 mg/mL (8.57 × 10^-5 mmole/mL).
The mark [11] stands for this setting: #95001 0.025 mg/mL (4.29 × 10^-5 mmole/mL).

On to `N.N.[Cl][Pt][Cl]` [cisplatin, cis-diamminedichloroplatinum], for which the MCF-7 cell count in series [1] (setting [5]) and in series [1] (setting [6]) was 5.00 × 10^3 throughout. For the same compound, the “% inhibition” value came to 99.8% in series [1] (MCF-7, 0.012 mg/mL (4.00 × 10^-5 mmole/mL)); 99.9% in series [1] (MCF-7, cisplatin 0.025 mg/mL (8.33 × 10^-5 mmole/mL)); 90.0% in series [2] (setting [5]); 99.0% in series [2] (setting [6]). Further, the results for the “cell count, normal human mammary cells” value in series [2] (setting [5]) and in series [2] (setting [6]) were 1.00 × 10^4 and 3.30 × 10^3, respectively.

Consider “cis-diamminechloroguanosineplatinum chloride [cis-[Pt(NH3)2 Cl(Guanosine)]Cl]”, for which the MCF-7 cell count in series [3] (setting [7]) is on record as 6.10 × 10^5; in series [3] (setting [8]) it was 5.00 × 10^4; in series [3] (setting [9]), 1.00 × 10^4; in series [1] (setting [10]), 6.70 × 10^3; in series [1] (setting [11]) it was 3.30 × 10^3. For the same compound, the “% inhibition” value amounted to 9.0% in series [3] (MCF-7, 0.00025 mg/mL (4.29 × 10^-7 mmole/mL)); 92.5% in series [3] (MCF-7, 0.0025 mg/mL (4.29 × 10^-6 mmole/mL)); 98.5% in series [3] (MCF-7, 0.025 mg/mL (4.29 × 10^-5 mmole/mL)); 11.3% in series [4] (MDA-MB-231, 0.00025 mg/mL (4.29 × 10^-7 mmole/mL)); 87.5% in series [4] (MDA-MB-231, 0.0025 mg/mL (4.29 × 10^-6 mmole/mL)); 97.5% in series [4] (MDA-MB-231, 0.025 mg/mL (4.29 × 10^-5 mmole/mL)). The “% inhibition” value in series [1] (MCF-7, 0.05 mg/mL (8.57 × 10^-5 mmole/mL)) is 99.8%; in series [1] (MCF-7, #95001 0.025 mg/mL (4.29 × 10^-5 mmole/mL)), 97.6%; in series [2] (setting [10]) it was 55.0%; in series [2] (setting [11]) it was 7.0%. In addition, the “inhibition of cell growth (in words)” value in series [3] (MCF-7, 6 days) is given as “able to inhibit the cell growth”; in series [4] (MDA-MB-231, 6 days) it was “able to inhibit the cell growth”. The MDA cell count in series [4] (setting [7]) was 3.55 × 10^5; in series [4] (setting [8]), 5.00 × 10^4; in series [4] (setting [9]) it was 1.00 × 10^4. Besides, the “effectiveness in killing MCF-7 cells versus cisplatin (in words)” value in series [1] (ca. 8×10-5 mmole/mL) was “as effective as cisplatin in killing MCF-7 cells”. Moreover, the “cell count, normal human mammary cells” value is reported as 4.50 × 10^4 in series [2] (setting [10]) and 9.30 × 10^4 in series [2] (setting [11]). Moreover, the “toxicity to normal human mammary cells versus cisplatin (in words)” value in series [2] (ca. 8×10-5 mmole/mL) is “lower than cisplatin”.
